Results from patent publication US4221794A, “Method of imparting immunomodulating and antiviral activity” (Newport Pharmaceuticals International, Inc., priority 1979, dated 1980).
Where two headings read alike, the source gives them in different places.

What was measured:
[1] = system: influenza virus; assay: microbe, parasite or virus in culture; format: cell-based, influenza virus Type A/USSR 90 (HeLa cell cultures); conditions: for inhibition at 100 µg/mL: unidentified influenza virus, read-out: % Inhibition of Hemadsorption Foci, Test Compound Conc. >100 μg/ml
[2] = system: human peripheral blood lymphocytes; assay: Mitogen (PHA) induced human lymphocyte proliferation; format: cell-based; conditions: plus = immunostimulating, minus = immunoinhibiting, 0 = neither
[3] = system: influenza virus; assay: Anti-influenza activity (overall); format: cell-based, several strains of A and B sub-types
[4] = system: mouse lymphocytes; assay: Mitogen (Con A) induced mouse lymphocyte (spleen cell) proliferation; format: cell-based; conditions: plus = immunostimulating, minus = immunoinhibiting, 0 = neither
Excerpt: The following three assay procedures are used to evaluate the ability of the test substances to modulate the activity of several classes of cells in the immune system. In these systems it is possible to identify both immunopotentiating activity (evidence by an enhancement of the parameter examined) as well as immunosuppressant activity (evidenced by an inhibition of the parameter examined).
1. Mitogen-Induced Mouse Spleen Cell Assay
Mouse spleen cells contain a population of both B and T lymphocytes which can be stimulated by a number of foreign substances (e.g., plant mitogens such as Con A) to proliferate. This enhanced proliferation is an indication of enhanced cell mediated immunity. The method below describes the system used to evaluate test substances as immunopotentiators.
Concanavalin A (Calbiochem, La Jolla, California), Lot #210073, lyophilized in NaCl, was prepared first as a 1% solution and diluted as a 2×concentration for each dilution (0.5, 1.0, 2.5 μg/ml).
Six to eight week old male Balb/c and C3 H inbred mice were obtained from the following sources: Flow Research Animals, Inc., Dublin, Virginia; Charles River Breeding Laboratories, Wilmington, Massachusetts; Laboratory Supply Company, Indianapolis, Indiana; and Lionel Strong Foundation, San Diego, California.
Three to five mice were sacrificed by cervical dislocation and the spleens aseptically removed. Pooled spleens were minced and teased with sterile forceps; then strained through a double layer of nylon mesh. The cell suspension was washed once with 15 ml of RPMI 1640 supplemented with 5% fetal calf serum and antibiotics. Cells were cultured at a concentration of 10^6 cells/0.1 ml/well in micro-plates. Cultures were incubated in the presence or absence of mitogen in a humidified atmosphere containing 5% CO2 for 48 hours. The test compound was added to cultures at various concentrations concommitant with mitogen.
Proliferation was assayed by the degree of incorporation of 1.0 μCi of [^3 H] thymidine over an 18 hour incubation period. Cultures were harvested by a MASH unit (Otto Hiller Co., Madison, Wisconsin) and thymidine incorporation was assayed by liquid scintillation spectrometry. Cultures were performed in triplicate and data are expressed as means plus or minus the standard error of the experimental means. Drug stimulation indices over control values were also calculated and portrayed graphically.
(§1) Table 4 above presents the results of an evaluation of a number of these subject compounds as potentiators of the immune response. Three different test systems were used. The first involves a measure of the ability of the test compound to enhance the ability of mouse lymphocytes to proliferate in response to a plant mitogen (Con A). The second involves measuring the ability of the test compounds to enhance human lymphocyte proliferation in response to a second plant mitogen (PHA). The third system measures the ability of these test substances to enhance macrophage proliferation in response to a natural lymphokine (MMF, Macrophage Mitogenic Factor).

[5] = system: guinea pig macrophages; assay: Lymphokine (MMF) induced guinea pig macrophage proliferation; format: cell-based; conditions: plus = immunostimulating, minus = immunoinhibiting, 0 = neither
Method: 3. The macrophage represents a subpopulation of white blood cells which is an important component of the immune system in control of both cellular and humoral immunity. The assay system described below evaluates the substances studied as potentiators of macrophage function.
Phytohemagglutinin (PHA) (HA-17) was purchased from Burroughs Wellcome. A preparation containing Macrophage Mitogen Factor (MMF) and Macrophage Activating Factor (MAF) was prepared from antigen-stimulated immune lymph node lymphocytes (guinea pig) as previously described by Hadden et al, Nature 257, 483-485 (1975). […] The active fraction was employed in both the proliferation and activation assays.
Ficoll-hypaque purified human peripheral blood lymphocytes were prepared and PHA-induced lymphocyte proliferation was assayed by the incorporation of tritiated thymidine as described in Hadden et al., Cell. Immunol. 20, 98-103 (1975). Each compound was analyzed in the presence of suboptimal, optimal and supraoptimal concentrations of PHA (0.001, 0.01, 0.1 units/ml respectively). Paraffin oil-induced guinea pig peritoneal macrophages were prepared and incubated as monolayer culture (>98% pure macrophages). Lymphokine (MMF)-induced proliferation was assayed by the incorporation of tritiated thymidine at 3 and 5 days of culture as described, Hadden et al, Nature 257, 483-485 (1975). Lymphokine (MAF)-induced macrophage activation to kill Listeria monocytogenes following 5 days of culture in the presence or absence of MAF was performed during a 6 hour period as described in Hadden and England, Immunopharmacology, pages 87-100 (Plenum Press, 1977). Phagocytosis was quantitated during a 20-minute exposure to Listeria monocytogenes by counting the number of macrophages containing bacteria and the number of bacteria per phagocytic cell on gram stained monolayers in Labtek chambers. Intracellular killing of bacteria was evaluated by counting the number of cells containing bacteria and the number of bacteria/cell 6 hours after the initial 20 minute exposure. Parallel experiments in which macrophages were lysed and intracellular bacteria were cultured confirm the validity of bacterial activity determined by this manner in this system. The drugs were employed in each of the three systems over serial log concentration range in triplicate in the presence and absence of mitogen or lymphokine. Each type of experiment was performed at least three times. Previous experiments indicate a parallelism of response to pharmacologic modulation in the proliferation and achivation assays.
as §1

## OCCn1cnc2c(=S)[nH]cnc21 [NPT 15435]
[1]
  inhibition at 100 µg/mL: 10%
[2]; 1.0-10 (unit not given)
  Maximum Percent Change, Mitogen Induced (PHA) Human Lymph. Prolif.: 45%
[2]; 10-100 (unit not given)
  Maximum Percent Change, Mitogen Induced (PHA) Human Lymph. Prolif.: -50%
[2]; .01-1.0 (unit not given)
  Maximum Percent Change, Mitogen Induced (PHA) Human Lymph. Prolif.: 55%

## OCCn1cnc2c(S)ncnc21 [NPT 15437]
[1]
  inhibition at 100 µg/mL: 65%
[3]
  potentiation of anti-influenza activity by DIP.PAcBA salt: Yes

## CC(CO)n1cnc2c(=O)[nH]cnc21 (centres unmarked) [NPT 15443, 9-(1-HYDROXY-2-PROPYL)HYPOXANTHINE]
[1]; Test Compound Conc. >100 μg/ml, listed as 15443
  % Inhibition of Hemadsorption Foci: 0%
[4]; 1.0-10 (unit not given)
  Maximum Percent Change, Mitogen Induced (Con A) Mouse Lymph. Prolif.: +27%
[4]; 10-100 (unit not given)
  Maximum Percent Change, Mitogen Induced (Con A) Mouse Lymph. Prolif.: +27%
[4]; .01-1.0 (unit not given)
  Maximum Percent Change, Mitogen Induced (Con A) Mouse Lymph. Prolif.: +17%
[2]; 1.0-10 (unit not given)
  Maximum Percent Change, Mitogen Induced (PHA) Human Lymph. Prolif.: +13%
[2]; 10-100 (unit not given)
  Maximum Percent Change, Mitogen Induced (PHA) Human Lymph. Prolif.: 0%
[2]; .01-1.0 (unit not given)
  Maximum Percent Change, Mitogen Induced (PHA) Human Lymph. Prolif.: 0%
[5]; 1.0-10 (unit not given)
  Maximum Percent Change, Lymphokine Induced (MMF) Guinea Pig Mac. Prolif.: 0%
[5]; .01-1.0 (unit not given)
  Maximum Percent Change, Lymphokine Induced (MMF) Guinea Pig Mac. Prolif.: +20%

## CC(CO)n1cnc2c(=O)[nH]cnc21 (centres unmarked) [NPT 15444]
[1]; Test Compound Conc. >100 μg/ml, listed as 15444
  % Inhibition of Hemadsorption Foci: 54%
[3]
  potentiation of anti-influenza activity by DIP.PAcBA salt: Yes

## CC(O)Cn1cnc2c(=O)[nH]cnc21 (centres unmarked) [NPT 15446, 9-(2-HYDROXY-1-PROPYL)HYPOXANTHINE]
[1]; Test Compound Conc. <10 μg/ml, listed as 15446
  % Inhibition of Hemadsorption Foci: 2%
[1]; Test Compound Conc. >100 μg/ml, listed as 15446
  % Inhibition of Hemadsorption Foci: 0%
[4]; 1.0-10 (unit not given)
  Maximum Percent Change, Mitogen Induced (Con A) Mouse Lymph. Prolif.: 12%
[4]; 10-100 (unit not given)
  Maximum Percent Change, Mitogen Induced (Con A) Mouse Lymph. Prolif.: 0%
[4]; .01-1.0 (unit not given)
  Maximum Percent Change, Mitogen Induced (Con A) Mouse Lymph. Prolif.: 6%
[2]; 1.0-10 (unit not given)
  Maximum Percent Change, Mitogen Induced (PHA) Human Lymph. Prolif.: 0%
[2]; 10-100 (unit not given)
  Maximum Percent Change, Mitogen Induced (PHA) Human Lymph. Prolif.: 0%
[2]; .01-1.0 (unit not given)
  Maximum Percent Change, Mitogen Induced (PHA) Human Lymph. Prolif.: 0%
[5]; 1.0-10 (unit not given)
  Maximum Percent Change, Lymphokine Induced (MMF) Guinea Pig Mac. Prolif.: 0%
[5]; 10-100 (unit not given)
  Maximum Percent Change, Lymphokine Induced (MMF) Guinea Pig Mac. Prolif.: 0%
[5]; .01-1.0 (unit not given)
  Maximum Percent Change, Lymphokine Induced (MMF) Guinea Pig Mac. Prolif.: 0%

## CC(O)Cn1cnc2c(=O)[nH]cnc21 (centres unmarked) [NPT 15447]
[1]; Test Compound Conc. <10 μg/ml, listed as 15447
  % Inhibition of Hemadsorption Foci: 10%
[1]; Test Compound Conc. >100 μg/ml, listed as 15447
  % Inhibition of Hemadsorption Foci: 34%
[3]
  potentiation of anti-influenza activity by DIP.PAcBA salt: Yes

## CC(=O)Nc1ccc(C(=O)O)cc1.CC(O)CN(C)C [compound 15110, dimethylamino-2-propanol-p-acetamido benzoate, reference compound]
[1]
  % Inhibition of Hemadsorption Foci: 0%
